# Test results from US9487510B2, “Substituted heterocyclic acetamides as kappa opioid receptor (KOR) agonists” (Dr. Reddy's Laboratories Ltd., priority 2012, dated 2016).
# pEC50: −log10 of the molar value.
# Molecular target: human KOR receptor (Homo sapiens, UniProt P41145)
# Assay: IP-One HTRF assay, potency of KOR agonists, dose-response in transiently transfected COS-7 cells
# Assay type: cell-based
# human KOR receptor, sequence (P41145 whole entry): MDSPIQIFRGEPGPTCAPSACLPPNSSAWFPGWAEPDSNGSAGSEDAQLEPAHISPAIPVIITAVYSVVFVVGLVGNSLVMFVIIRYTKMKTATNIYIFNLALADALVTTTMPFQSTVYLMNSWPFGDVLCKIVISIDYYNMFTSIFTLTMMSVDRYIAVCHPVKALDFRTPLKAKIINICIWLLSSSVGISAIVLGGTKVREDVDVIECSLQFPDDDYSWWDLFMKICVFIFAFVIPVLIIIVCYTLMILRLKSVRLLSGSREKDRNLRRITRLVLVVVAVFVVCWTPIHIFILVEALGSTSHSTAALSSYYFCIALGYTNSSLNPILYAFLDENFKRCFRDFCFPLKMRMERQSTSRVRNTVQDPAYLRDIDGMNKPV
row,Structure (SMILES),pEC50
1,"CN(C(=O)Cc1ccc2c(c1)NC(=O)CO2)[C@H](CN1CC[C@H](O)C1)c1cccc(OCC(N)=O)c1 [Example 173, N-((S)-1-(3-(2-amino-2-oxoethoxy)phenyl)-2-((S)-3-hydroxypyrrolidin-1-yl)ethyl)-N-methyl-2-(3-oxo-3,4-dihydro-2H-benzo[b][1,4]oxazin-6-yl)acetamide]",≥ 7.30
2,"COc1cccc([C@@H](CN2CC[C@H](O)C2)N(C)C(=O)Cc2ccc3c(c2)NC(=O)CS3)c1 [Example 131, N-((S)-2-((S)-3-hydroxypyrrolidin-1-yl)-1-(3-methoxyphenyl)ethyl)-N-methyl-2-(3-oxo-3,4-dihydro-2H-benzo[b][1,4]thiazin-6-yl)acetamide]",≥ 7.30
3,"CN(C(=O)Cc1ccc2oc(=O)[nH]c2c1)[C@H](CN1CC[C@H](O)C1)c1cccc(C(=O)O)c1 [Example 176, 3-((S)-2-((S)-3-hydroxypyrrolidin-1-yl)-1-(N-methyl-2-(2-oxo-2,3-dihydrobenzo[d]oxazol-5-yl)acetamido)ethyl)benzoic acid]",≥ 7.30
4,"CN(C(=O)Cc1ccc2c(c1)NC(=O)C2)[C@H](CN1CC[C@H](O)C1)c1cccc(C(=O)NS(C)(=O)=O)c1 [Example 177, 3-((S)-2-((S)-3-hydroxypyrrolidin-1-yl)-1-(N-methyl-2-(2-oxoindolin-6-yl)acetamido)ethyl)-N-(methylsulfonyl)benzamide]",≥ 7.30
5,"O=C1CS(=O)(=O)c2ccc(CC(=O)N(CC3CC3)[C@H](CN3CCC(O)C3)c3cccc(OC(F)(F)F)c3)cc2N1 (stereo in doubt) [Example 141, N-(cyclopropylmethyl)-2-(1,1-dioxido-3-oxo-3,4-dihydro-2H-benzo[b][1,4]thiazin-6-yl)-N-((S)-2-((S)-3-hydroxypyrrolidin-1-yl)-1-(3-(trifluoromethoxy)phenyl)ethyl)acetamide]",≥ 7.30
6,"CN(C(=O)Cc1ccc2c(c1)NC(=O)C2)[C@H](CN1CC[C@H](O)C1)c1cccc(-c2cn(C)cn2)c1 [Example 225, N-((S)-2-((S)-3-hydroxypyrrolidin-1-yl)-1-(3-(1-methyl-1H-imidazol-4-yl)phenyl)ethyl)-N-methyl-2-(2-oxoindolin-6-yl)acetamide]",≥ 7.30
7,"CN(C(=O)Cc1ccc2c(c1)NS(=O)(=O)C2)[C@H](CN1CC[C@H](O)C1)c1cccc(C(F)(F)F)c1 [Example 9, 2-(2,2-dioxido-1,3-dihydrobenzo[c]isothiazol-6-yl)-N-((S)-2-((S)-3-hydroxypyrrolidin-1-yl)-1-(3-(trifluoromethyl)phenyl)ethyl)-N-methylacetamide]",6.00 to 7.00
8,"CN(C(=O)Cc1ccc2c(c1)N(C)S(=O)(=O)C2)[C@H](CN1CC[C@H](O)C1)c1cccc(OCC(=O)O)c1 [Example 80, 2-(3-((S)-2-((S)-3-hydroxypyrrolidin-1-yl)-1-(N-methyl-2-(1-methyl-2,2-dioxido-1,3-dihydrobenzo[c]isothiazol-6-yl)acetamido)ethyl)phenoxy)acetic acid]",≥ 7.30
9,"CN(C(=O)Cc1ccc2c(c1)NC(=O)CS2)[C@H](CN1CCCC1)c1ccccc1 [Example 129, (S)-N-methyl-2-(3-oxo-3,4-dihydro-2H-benzo [b][1,4]thiazin-6-yl)-N-(1-phenyl-2-(pyrrolidin-1-yl)ethyl)acetamide]",≥ 7.30
10,"CN(C(=O)Cc1ccc2oc(=O)n(Cc3cccc(C#N)c3)c2c1)[C@H](CN1CC[C@H](O)C1)c1ccccc1 [Example 66, 2-(3-(3-cyanobenzyl)-2-oxo-2,3-dihydrobenzo[d]oxazol-5-yl)-N-((S)-2-((S)-3-hydroxypyrrolidin-1-yl)-1-phenylethyl)-N-methylacetamide]",≥ 7.30
11,"CN(C(=O)Cc1ccc2c(c1)NC(=O)C2)[C@H](CN1CC[C@H](O)C1)c1cccc(C(=O)NCC(F)(F)F)c1 [Example 38, 3-((S)-2-((S)-3-hydroxypyrrolidin-1-yl)-1-(N-methyl-2-(2-oxoindolin-6-yl)acetamido)ethyl)-N-(2,2,2-trifluoroethyl)benzamide]",≥ 7.30
12,"CN(C(=O)Cc1ccc2c(c1)NC(=O)CS2(=O)=O)[C@H](CN1CC[C@H](O)C1)c1cccc(OC(F)(F)F)c1 [Example 5, 2-(1,1-dioxido-3-oxo-3,4-dihydro-2H-benzo [b][1,4]thiazin-6-yl)-N-((S)-2-((S)-3-hydroxypyrrolidin-1-yl)-1-(3-(trifluoromethoxy)phenyl)ethyl)-N-methylacetamide]",≥ 7.30
13,"CN(C(=O)Cc1ccc2c(c1)NC(=O)C2)[C@H](CN1CC[C@H](O)C1)c1cccc(-c2nccn2C)c1 [Example 213, N-((S)-2-((S)-3-hydroxypyrrolidin-1-yl)-1-(3-(1-methyl-1H-imidazol-2-yl)phenyl)ethyl)-N-methyl-2-(2-oxoindolin-6-yl)acetamide]",≥ 7.30
14,"CCC#Cc1cccc([C@@H](CN2CC[C@H](O)C2)N(C)C(=O)Cc2ccc3ncc(=O)[nH]c3c2)c1 [Example 206, N-((S)-1-(3-(but-1-yn-1-yl)phenyl)-2-((S)-3-hydroxypyrrolidin-1-yl)ethyl)-N-methyl-2-(3-oxo-3,4-dihydroquinoxalin-6-yl)acetamide]",≥ 7.30
15,"CCN(CC)C(=O)c1cccc([C@@H](CN2CC[C@H](O)C2)N(C)C(=O)Cc2ccc3c(c2)NS(=O)(=O)C3)c1 [Example 208, 3-((S)-1-(2-(2,2-dioxido-1,3-dihydrobenzo[c]isothiazol-6-yl)-N-methylacetamido)-2-((S)-3-hydroxypyrrolidin-1-yl)ethyl)-N,N-diethylbenzamide]",≥ 7.30
16,"CN(C(=O)Cc1ccc2c(c1)NC(=O)CS2(=O)=O)[C@H](CN1CC[C@H](O)C1)c1cccc(C#N)c1 [Example 6, N-((S)-1-(3-cyanophenyl)-2-((S)-3-hydroxypyrrolidin-1-yl)ethyl)-2-(1,1-dioxido-3-oxo-3,4-dihydro-2H-benzo[b][1,4]thiazin-6-yl)-N-methylacetamide]",≥ 7.30
17,"CN(C(=O)Cc1ccc2c(c1)CC(=O)N2)C(CN1CCC(O)C1)c1ccccc1 (stereo in doubt) [Example 161, N-((S)-2-((S)-3-hydroxypyrrolidin-1-yl)-1-phenylethyl)-N-methyl-2-(2-oxoindolin-5-yl)acetamide]",≥ 7.30
18,"CN(C(=O)Cc1ccc2oc(=O)[nH]c2c1)C(CN1CC[C@H](O)C1)c1cccc(OCC#N)c1 (mixture of isomers) [Example 76, N-(1-(3-(cyanomethoxy)phenyl)-2-(3-hydroxypyrrolidin-1-yl)ethyl)-N-methyl-2-(2-oxo-2,3-dihydrobenzo[d]oxazol-5-yl)acetamide]",≥ 7.30
19,"C#Cc1cccc([C@@H](CN2CC[C@H](O)C2)N(C)C(=O)Cc2ccc3c(c2)NS(=O)(=O)C3)c1 [Example 182, 2-(2,2-dioxido-1,3-dihydrobenzo[c]isothiazol-6-yl)-N-((S)-1-(3-ethynylphenyl)-2-((S)-3-hydroxypyrrolidin-1-yl)ethyl)-N-methylacetamide]",≥ 7.30
20,"CN(C(=O)Cc1ccc2c(c1)NS(=O)(=O)C2)[C@H](CN1CC[C@H](O)C1)c1cccc(-c2nn[nH]n2)c1 [Example 79, N-((S)-1-(3-(1H-tetrazol-5-yl)phenyl)-2-((S)-3-hydroxypyrrolidin-1-yl)ethyl)-2-(2,2-dioxido-1,3-dihydrobenzo[c]isothiazol-6-yl)-N-methylacetamide]",≥ 7.30
